Data from patent publication US20060004207A1, “Preparation of new pharmaceutically suitable salt of losartan and forms thereof with new purification and isolation methods” (priority 2003, published 2006).
Read-outs that look alike come from different tables or passages of the source.

What was measured:
[1] = Rate of dissolution of the substance, 75 mg in 50 ml 0.1 M HCl; assay type: physicochemical
[2] = Dynamic vapour sorption (DVS); assay type: physicochemical
Experimental: Measurements were performed on instrument DVS—The Sorption Solution, Surface Measurement Systems Ltd. UK.
The principle of measurement is as follows: The sample measured is placed on one side of a very precise scale, a reference non-hydroscopic sample having been placed on the other side. The scale is located in an isolated chamber in which the relative humidity can be set. The hydroscopic sample being measured binds moisture from the environment, and an increase of mass is detected.
The ordinate axis represents the change of mass, abscise representing the humidity.

[3] = Stability test, amorphous versus form with bound water, 4 days in air at 60/80° C., dry or moist; assay type: physicochemical; conditions: for Physical form when exposed to moisture: 4 days
Experimental: For evaluation and comparison, respectively, of the stability, four tests were conducted.

[4] = Solubility of crystalline forms of losartan potassium
[5] = for Loss of weight: ~10 mBar
Experimental: The sample was exposed to temperatures between 60° C. and 80° C. and negative pressure ˜10 mBar.

[6] = 10 g exposed to heat while dried
Experimental: Temperature stability of the sample of polymorph Form Y was tested by exposing 10 g polymorph Form Y potassium salt of -n-butyl-4-chloro-5-hydroxymethyl-1-[[2′-(1H-tetrazol-5-yl)[1,1′-biphenyl]-4-yl]methyl]-1H-imidazole to heat while dried.

CCCCc1nc(Cl)c(CO)n1Cc1ccc(-c2ccccc2-c2nn[nH]n2)cc1 [Milled sample of Form I, losartan potassium, reference compound]
RATE OF DISSOLUTION [1]: 8 min

CCCCc1nc(Cl)c(CO)n1Cc1ccc(-c2ccccc2-c2nnn[n-]2)cc1.[K+] [crystalline form with bound water, losartan potassium]
Content of water in sample after crystallization ([2]; after crystallization at 80% relative humidity): approximately 13% | Relative humidity at which bound water is lost and the sample transforms into amorphous form ([2]; decreasing relative humidity): below 20% | Stability to temperature and moisture ([3]; 4 days in air, 60° C. or 80° C., dry atmosphere or moisture): at least as stable as amorphous | Physical form when exposed to moisture [3]: maintained the powdered form | Solubility (comparison in words) ([4]; in water): less soluble than known Form I, or amorphous losartan potassium

CCCCc1nc(Cl)c(CO)n1Cc1ccc(-c2ccccc2-c2nnn[n-]2)cc1.[K+] [LST-K-3279, potassium salt of 2-n-butyl-4-chloro-5-hydroxymethyl-1-[[2′-(1H-tetrazol-5-yl)[1,1′-biphenyl]-4-yl]methyl]-1H-imidazole]
Polymorphic form after storage ([5]; 45-day storage in a closed flask at room temperature): did not change its polymorphic forms | Loss of weight ([5]; 60° C.): 0.79% | Loss of weight ([5]; 80° C.): 0.90% | Crystalline structure after heat and negative pressure ([5]; between 60° C. and 80° C., negative pressure ~10 mBar): did not change under any of the conditions

CCCCc1nc(Cl)c(CO)n1Cc1ccc(-c2ccccc2-c2nnn[n-]2)cc1.[K+] [polymorph Form Y, potassium salt of 2-n-butyl-4-chloro-5-hydroxymethyl-1-[[2′-(1H-tetrazol-5-yl)[1.1′-biphenyl]-4-yl]methyl]-1H-imidazole]
Polymorph form after exposure to heat while dried [6]: Polymorph Form X was obtained

CCCCc1nc(Cl)c(CO)n1Cc1ccc(-c2ccccc2-c2nnn[n-]2)cc1.[K+] [LST-K-1481, potassium salt of 2-n-butyl-4-chloro-5-hydroxymethyl-1-[[2′-(1H-tetrazol-5-yl)[1,1′-biphenyl]-4-yl]methyl]-1H-imidazole]
SOLUBILITY in 0.1 M HCl ([4]; in 0.1 M HCl): 1.74 mg/mL | RATE OF DISSOLUTION [1]: 14 min

CCCCc1nc(Cl)c(CO)n1Cc1ccc(-c2ccccc2-c2nn[nH]n2)cc1 [amorphous losartan potassium, losartan potassium]
Water content at repeated sorption, at which point the amorphous sample crystallizes ([2]; at 60% relative humidity): approximately 13% | Weight increase ([2]; at 70-80% relative humidity): 20-26% | Absorption of water (increase of mass) ([2]; at 80% relative humidity, first sorption): 25% | Hygroscopicity (comparison) [3]: essentially more hygroscopic than the form with bound water of losartan potassium | Physical form when exposed to moisture [3]: merged into a glassy mass and then white crystals of form with bound water were formed

CCCCc1nc(Cl)c(CO)n1Cc1ccc(-c2ccccc2-c2nnn[n-]2)cc1.[K+] [LST-K-1496/1, potassium salt of 2-n-butyl-4-chloro-5-hydroxymethyl-1-[[2′-(1H-tetrazol-5-yl)[1,1′-biphenyl]-4-yl]methyl]-1H-imidazole]
RATE OF DISSOLUTION [1]: 13 min

CCCCc1nc(Cl)c(CO)n1Cc1ccc(-c2ccccc2-c2nn[nH]n2)cc1 [Form I, losartan potassium, reference compound]
solubility ([4]; 0.1 M HCl, simulated gastric fluid): 1.52 mg/mL | solubility ([4]; water): 630 mg/mL | RATE OF DISSOLUTION [1]: 16 min
